Measurements reported in patent US9073858B2, “Methods of targeted drug development” (priority 2010, dated 2015).
Entries after “also recorded” stand apart in the source; their conditions may differ. Where two headings read alike, the source gives them in different places.

Assays:
[1] = Stability on incubation with mouse liver microsomes (MLM); type: in vitro ADME; conditions: for stability toward liver microsome incubation: mouse and human liver microsomes (MLM, HLM); for MLM % Remaining@ 30 Min: percentage left after incubation with mouse liver microsomes for 30 minutes
Procedure, shortened: (§1)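 Values are percent compound remaining after 30 min incubation with mouse or human liver microsomes.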

[2] = system: A549 cells; assay: A549 Cell Proliferation Assay (MTT); type: cell-based
Procedure: Cell proliferation is determined using the MTT assay. The MTT cell proliferation assay is a colorimetric assay system which measures the reduction of a tetrazolium component (MTT) into an insoluble formazan product by the mitochondria of viable cells. After incubation of the cells with the MTT reagent, DMSO is added to solubilize the colored crystals and the samples read at a wavelength of 560 nm. The amount of color produced is directly proportional to the number of viable cells. […] L11939) was prepared at 5 mg/ml in PBS. […] Plates were read on the PolarStar plate reader at 560 nm. […] IC50 values were calculated in GraphPad Prism using non-linear regression curve fitting. All statistical analyses was done either in GraphPad Prism or Microsoft Excel. […] Briefly, compounds are added to cells plated in 96-well plates. The cells are allowed to grow for 72 hours before MTT treatment. The effect of the compounds on cell proliferation is analyzed using GraphPad Prism. A549 cells are a non-small cell lung cancer cell line that have wild type EGFR and p53 but have point mutations in KRAS gene which transform it into an oncogene. […] SH30071.03, lot no. ATB31500), 1% Pen Strep (Gibco, cat no. […] On day 2, working solutions of compounds at 200× were prepared. […] Plates were incubated for 72 hours before analyzing them with MTT (as described above).

[3] = Stability on incubation with human liver microsomes (HLM); type: in vitro ADME; conditions: percentage left after incubation with human liver microsomes for 30 minutes
Procedure, shortened: as §1

[4] = system: HT-29 cells; assay: HT-29 Cell Proliferation Assay (MTT); type: cell-based; conditions: read-out: IC50 Value (μM) HT-29 Cells
Procedure: (§2) Cell proliferation is determined using the MTT assay. The MTT cell proliferation assay is a colorimetric assay system which measures the reduction of a tetrazolium component (MTT) into an insoluble formazan product by the mitochondria of viable cells. After incubation of the cells with the MTT reagent, DMSO is added to solubilize the colored crystals and the samples read at a wavelength of 560 nm. The amount of color produced is directly proportional to the number of viable cells.
(§3) 3-(4,5-Dimethylthiazol-2-yl)-2,5-diphenyltetrazolium Bromide (MTT) dye (Aesar, cat no. L11939) was prepared at 5 mg/ml in PBS. To each well, 20 μl of MTT solution was added to existing media and mixed thoroughly with 5 mins of gentle shaking at room temperature. Plates were incubated at 37° C., 5% CO2 for approximately 2 hrs. After 2-3 hrs incubation, media was aspirated out and plates were patted dry. […] Plates were incubated at 37° C., 5% CO2 for 10 min and mix thoroughly with 5 mins of gentle shaking at room temperature. Plates were read on the PolarStar plate reader at 560 nm. Percent (%) inhibition was calculated as 100%−(OD560 nm experimental-blank)×100%/OD560 nm control-blank. Blank=wells+serum free media+0.5% DMSO. Experimental=wells+cells+treatment+0.5% DMSO. Control=wells+cells+0.5% DMSO. IC50 values were calculated in GraphPad Prism using non-linear regression curve fitting. All statistical analyses was done either in GraphPad Prism or Microsoft Excel.
Briefly, compounds are added to cells plated in 96-well plates. […] The effect of the compounds on cell proliferation is analyzed using GraphPad Prism.
HT-29 cells are a colon cancer cell line that is utilized to assess the ability of compounds to inhibit the proliferation of cells in tumors of the colon.
For the HT-29 cell proliferation assay, on day 1, HT-29 cells are seeded at 3,000 cells/well in 100 μl media containing 10% FBS, 1× Pen-Strep, and 1× L-Glutamine in 96 well, tissue culture-treated plates. […] Working solutions of compounds were prepared (at […] in 100% DMSO). To 200 μl media, 20 μl of a 5× compound (diluted in plain media) was added for a final DMSO concentration of 0.5%. […] On day 5, plates were analyzed for cell growth using the MTT assay.

[5] = system: H1975 cells; assay: H1975 Cell Proliferation Assay (MTT); type: cell-based; conditions: read-out: IC50 Value (μM) H1975 Cells
Procedure: as §2, §3
Briefly, compounds are added to cells plated in 96-well plates. The cells are allowed to grow for 72 hours before MTT treatment. The effect of the compounds on cell proliferation is analyzed using GraphPad Prism.

[6] = Homo sapiens, A549, 72 h, read-out: IC50 Value (μM) A549 Cells
[7] = Homo sapiens, A549, read-out: IC50, cell proliferation in A549 or H1975 cells
[8] = Homo sapiens, NCI-H1975, MTT, 72 hours

Structure (SMILES)	MLM % Remaining@ 30 Min [1]	IC50 [2, 6]	HLM % Remaining@ 30 Min [3]	IC50 ([4]; Homo sapiens, HT-29, 72 h)	IC50 ([5]; Homo sapiens, NCI-H1975, 72 h)	also measured
Cc1cc(Cl)cnc1NC(c1ccc(C(F)(F)F)cc1)c1ccc2cccnc2c1O (stereo not shown) [AD4-13041]	81%	0.11 µM	100%	1.1 µM	0.17 µM	stability toward liver microsome incubation [1]: increased stability
Cc1cc(Cl)cnc1NC(c1ccc(C(F)(F)F)cc1F)c1ccc2cccnc2c1O (stereo not shown) [AD4-13042]	99%	0.11 µM	101%	1.3 µM	0.13 µM	stability toward liver microsome incubation [1]: increased stability
Oc1c(C(Nc2ccc(Cl)cn2)c2cccc(Cl)c2Cl)ccc2cccnc12 (stereo not shown) [AD4-13086]	37%	0.16 µM	72%	1.2 µM	0.15 µM	–
Oc1c(C(Nc2ccc(Cl)cn2)c2cc(Cl)ccc2Cl)ccc2cccnc12 (stereo not shown) [AD4-13095]	60%	0.11 µM	88%	5.4 µM	0.44 µM	–
Cc1cc(NC(c2ccc(Cl)c(C(F)(F)F)c2)c2ccc3cccnc3c2O)ncc1Cl (stereo not shown) [AD4-13108]	25%	0.14 µM	93%	3.3 µM	0.3 µM	–
Oc1c(C(Nc2ccc(F)cn2)c2cc(Cl)cc(Cl)c2Cl)ccc2cccnc12 (stereo not shown) [AD4-13111]	87%	0.14 µM	92%	–	0.37 µM	IC50 [4]: 8.9 µM
Cc1cc(Cl)cnc1NC(c1cc(Cl)cc(Cl)c1)c1ccc2cccnc2c1O (stereo not shown) [AD4-13131]	83%	0.1 µM	100%	0.92 µM	0.1 µM	IC50 [2, 7]: ≤ 0.1 µM
Oc1c(C(Nc2ccc(F)cn2)c2cc(Cl)cc(Cl)c2Cl)ccc2cccnc12 (stereo not shown) [AD4-13132]	66%	–	98%	–	–	IC50 ([2]; read-out: IC50 Value (μM) A549 Cells): 0.17 µM; IC50 [4]: 1.6 µM; IC50 [5]: 0.31 µM
Cc1cc(Cl)cnc1NC(c1ccc2cccnc2c1O)c1c(Cl)cccc1Cl (stereo not shown) [AD4-13142]	–	0.14 µM	–	3.1 µM	0.95 µM	–
Oc1c(C(Nc2ncc(Cl)cc2F)c2ccc(Cl)cc2Cl)ccc2cccnc12 (stereo not shown) [AD4-13143]	76%	0.13 µM	96%	1.1 µM	0.13 µM	–
Oc1c(C(Nc2ncc(Cl)cc2F)c2cccc(C(F)(F)F)c2)ccc2cccnc12 (stereo not shown) [AD4-13145]	–	0.16 µM	–	2.1 µM	1.7 µM	–
Oc1c(C(Nc2ncc(F)cc2F)c2ccc(F)cc2Cl)ccc2cccnc12 (stereo not shown) [AD4-13146]	–	0.14 µM	–	2 µM	0.24 µM	–
Cc1cc(NC(c2ccc3cccnc3c2O)c2c(Cl)cccc2Cl)ncc1Cl (stereo not shown) [AD4-13148]	–	0.13 µM	–	1.1 µM	0.31 µM	–
Oc1c(C(Nc2ncc(Cl)cc2F)c2ccc(Cl)c(Cl)c2)ccc2cccnc12 (stereo not shown) [AD4-13150]	85%	0.14 µM	100%	1.9 µM	0.45 µM	–
Cc1cc(NC(c2cccc(Cl)c2Cl)c2ccc3cccnc3c2O)ncc1Cl (stereo not shown) [AD4-13153]	62%	0.19 µM	96%	0.79 µM	0.19 µM	–
Cc1cc(Cl)cnc1NC(c1ccc(Cl)cc1)c1ccc2cccnc2c1O (stereo not shown) [AD4-13154]	–	0.17 µM	–	0.76 µM	0.15 µM	–

Structure (SMILES)	MLM % Remaining@ 30 Min [1]	IC50 [2, 6]	HLM % Remaining@ 30 Min [3]	IC50 ([4]; Homo sapiens, HT-29, 72 h)	IC50 ([5]; Homo sapiens, NCI-H1975, 72 h)	also measured
Cc1cc(Cl)cnc1NC(c1cccc(Cl)c1)c1ccc2cccnc2c1O (stereo not shown) [AD4-13159]	–	0.11 µM	–	1.2 µM	0.13 µM	–
Cc1cc(Cl)cnc1NC(c1cc(Cl)cc(Cl)c1Cl)c1ccc2cccnc2c1O (stereo not shown) [AD4-13167]	–	0.1 µM	–	1.5 µM	0.31 µM	–
Oc1c(C(Nc2cc(Cl)c(Cl)cn2)c2cccc(Cl)c2Cl)ccc2cccnc12 (stereo not shown) [AD4-13172]	80%	0.14 µM	100%	1.3 µM	0.15 µM	–
Oc1c(C(Nc2ncc(F)cc2F)c2ccc(Cl)cc2Cl)ccc2cccnc12 (stereo not shown) [AD4-13175]	–	0.17 µM	–	2 µM	3.8 µM	–
Oc1c(C(Nc2cc(Cl)c(Cl)cn2)c2ccc(Cl)c(Cl)c2)ccc2cccnc12 (stereo not shown) [AD4-13177]	86%	0.14 µM	86%	1.5 µM	0.27 µM	–
Oc1c(C(Nc2cc(Cl)c(Cl)cn2)c2cc(Cl)cc(Cl)c2Cl)ccc2cccnc12 (stereo not shown) [AD4-13180]	–	0.1 µM	–	1.7 µM	0.86 µM	–
Oc1c(C(Nc2ncc(F)cc2F)c2ccc(Cl)c(Cl)c2)ccc2cccnc12 (stereo not shown) [AD4-13182]	–	0.19 µM	–	8.3 µM	1.8 µM	–
Oc1c(C(Nc2cc(Cl)c(Cl)cn2)c2ccc(Cl)c(C(F)(F)F)c2)ccc2cccnc12 (stereo not shown) [AD4-13184]	–	0.11 µM	–	2.2 µM	0.24 µM	–
Oc1c(C(Nc2cc(Cl)c(Cl)cn2)c2ccc(Cl)cc2)ccc2cccnc12 (stereo not shown) [AD4-13187]	–	0.15 µM	–	1.3 µM	0.26 µM	–
Oc1c(C(Nc2cc(Cl)c(Cl)cn2)c2cccc(Cl)c2)ccc2cccnc12 (stereo not shown) [AD4-13188]	–	0.14 µM	–	0.86 µM	0.28 µM	–
Cc1cc(Cl)ccc1NC(c1ccc(Cl)c(Cl)c1)c1ccc2cccnc2c1O (stereo not shown) [AD4-13204]	–	–	–	–	–	IC50 ([2]; Homo sapiens, A549, MTT, 72 hours, read-out: IC50 Value (μM) A549 Cells): 0.19 µM; IC50 ([4]; Homo sapiens, HT-29, MTT, 72 hrs): 4.5 µM; IC50 [5, 8]: 1.4 µM
Cc1nc(NC(c2ccc(Cl)cc2Cl)c2ccc3cccnc3c2O)c(Cl)cc1Cl (stereo not shown) [AD4-13206]	93%	0.074 µM	99%	2.1 µM	0.36 µM	stability toward liver microsome incubation [1]: increased stability; also recorded: good stability; IC50 [2, 7]: ≤ 0.1 µM
Cc1nc(NC(c2cc(Cl)cc(Cl)c2Cl)c2ccc3cccnc3c2O)ccc1Cl (stereo not shown) [AD4-13209]	–	0.17 µM	–	2.3 µM	0.14 µM	–
Cc1nc(NC(c2cccc(Cl)c2Cl)c2ccc3cccnc3c2O)c(Cl)cc1Cl (stereo not shown) [AD4-13211]	–	0.082 µM	–	2 µM	0.16 µM	IC50 [2, 7]: ≤ 0.1 µM
Cc1cc(Cl)cnc1NC(c1ccc(Cl)cc1Cl)c1cc(Cl)c2cccnc2c1O (stereo not shown) [AD4-13212]	–	0.13 µM	–	3.5 µM	–	IC50 [5, 8]: 0.16 µM
